Active and inactive are the calls of the source. No cut-off for these calls is given here.
Molecular target: not listed separately
Test: Inhibition of yeast recombinant FTase by non-competitive Lineweaver-Burke plot using farnesyl pyrophosphate substrate
Set-up: species or system Saccharomyces cerevisiae
Conditions: not given

Ki [nM]	SMILES
110	CC(C)Sc1sc(C(=O)O)c(-c2ccc(Cl)cc2)c1C#N

Tested on: Saccharomyces cerevisiae
Test: (§1) Inhibition of yeast recombinant FTase
Conditions: not given

Activity	SMILES
inactive	CCOC(=O)c1sc(SC(C)C)nc1-c1ccc(Cl)cc1
inactive	CCOC(=O)c1oc(SC(C)C)c(C#N)c1-c1ccc(Cl)cc1
inactive	CCOC(=O)c1c(-c2ccc(Cl)cc2)c(C#N)c(SC(C)C)n1C

Tested on: not listed separately
Test: as §1
Set-up: species or system Saccharomyces cerevisiae
Conditions: not given

IC50	SMILES
Not Active	CON(C)C(=O)c1sc(SC(C)C)c(C#N)c1-c1ccc(Cl)cc1
Not Active	CC(C)Sc1scc(-c2ccc(Cl)cc2)c1C#N
Not Active	CC(C)Sc1sc(CO)c(-c2ccc(Cl)cc2)c1C#N

Same assay, conditions: read-out: IC50

IC50 [nM]	SMILES
790	CC(=O)c1sc(SC(C)C)c(C#N)c1-c1ccc(Cl)cc1
47000	CC(C)Sc1c(C#N)c(-c2ccc(Cl)cc2)c(C(=O)O)n1C
7.5	CSCC[C@@H](NC(=O)c1sc(SC(C)C)c(C#N)c1-c1ccc(Cl)cc1)C(=O)O
2000	CC(C)Sc1oc(C(=O)O)c(-c2ccc(Cl)cc2)c1C#N
325	CCSc1sc(C(=O)O)c(-c2ccc(Cl)cc2)c1C#N
22000	CSc1sc(C(=O)NC2CC2)c(-c2ccc(Cl)cc2)c1C#N
1100	CC(C)Sc1sc(C(N)=O)c(-c2ccc(Cl)cc2)c1C#N
28000	N#Cc1c(N2CCOCC2)sc(C(=O)O)c1-c1ccc(Cl)cc1
1450	N#Cc1c(SC2CCCCC2)sc(C(=O)O)c1-c1ccc(Cl)cc1
345	CCC(C)Sc1sc(C(=O)O)c(-c2ccc(Cl)cc2)c1C#N (stereo unspecified)
3800	CCOC(=O)c1sc(SC(C)C)c(C#N)c1-c1ccc(Cl)cc1
1240	CCCCSc1sc(C(=O)O)c(-c2ccc(Cl)cc2)c1C#N
51000	CC(C)Sc1nc(-c2ccc(Cl)cc2)c(C(=O)O)s1
45000	CC(=O)OCc1sc(SC(C)C)c(C#N)c1-c1ccc(Cl)cc1
610	CSc1sc(C(=O)O)c(-c2ccc(Cl)cc2)c1C#N
110	CC(C)Sc1sc(C(=O)O)c(-c2ccc(Cl)cc2)c1C#N
5700	COC(=O)[C@@H](CCSC)NC(=O)c1sc(SC(C)C)c(C#N)c1-c1ccc(Cl)cc1
890	CC(C)CSc1sc(C(=O)O)c(-c2ccc(Cl)cc2)c1C#N

Molecular target: not listed separately
Test: Inhibition of yeast recombinant FTase by Lineweaver-Burke plot
Set-up: species or system Saccharomyces cerevisiae
Conditions: not given

Ki [nM]	SMILES
105	CC(C)Sc1sc(C(=O)O)c(-c2ccc(Cl)cc2)c1C#N
